Patent US20240197897A1, “HETEROTANDEM BICYCLIC PEPTIDE COMPLEXES” (Bicycle Tx Limited, priority 2021, published 2024)
Read-outs that look alike come from different tables or passages of the source. Starred links: 1 amine or outer side, 2 acyl side, 3 side chain; linkers in the order of their positions; H or OH if unused. Positions of bridges follow the written chain, without caps; N, C: chain ends. Non-standard residues stand in square brackets, D forms with d. Residues, ends and D or L forms follow the SMILES beside them. Chains are numbered I, II in the order given. No end group written: not given here. *: point of attachment. X3 = O=C(CCOCCOCCOCCOCCOCCOCCOCCOCCOCCOCCOCCOCCOCCOCCOCCOCCOCCOCCOCCOCCOCCOCCOCCOCCn1cc(CCC(=O)[*:2])nn1)[*:1]; TBMT = 2,4,6-tris(bromomethyl)-s-triazine, molecular scaffold, C(c1nc(C[*:2])nc(C[*:3])n1)[*:1]; X1 = O=C(CCOCCOCCOCCN(CCOCCOCCOCCn1cc(CCC(=O)[*:2])nn1)CCOCCOCCOCCn1cc(CCC(=O)[*:3])nn1)[*:1]; TATA = O=C(CC[*:1])N1CN(C(=O)CC[*:2])CN(C(=O)CC[*:3])C1; Hyp = O=C(O)[C@@H]1C[C@@H](O)CN1; hArg = N=C(N)NCCCC[C@H](N)C(=O)O; Cba = N[C@@H](CC1CCC1)C(=O)O; Pent4ynoyl = C#CCCC(=O)*

Experiments:
[1] = NK cytotoxicity assay (NK:HT1080-luc co-culture, luciferase readout); type: cell-based, human; conditions: NK:HT1080-luc co-culture, 24 hours, read-out: EC50 NK cytotoxicity (tumor cell killing)
Protocol: (§1) Heterotandem bicyclic peptide complexes were evaluated for NK functional readouts (cytotoxicity and cytokine secretion) in NK-tumor cell line co-cultures.
(§2) NK cells were isolated using a negative isolation kit (STEMCELL™ Technologies 17955) from the total PBMC population purified from whole blood. NK cell pellet was then resuspended in DMEM medium (Corning™ 10-013-CV) with 10% heat-inactivated fetal bovine serum (FBS; Corning® 35-011-CV), 10 mM HEPES (Gibco™ 15-630-080), and 1% Penicillin Streptomycin (Corning™ 30-002-CI), and 50 IU/mL human IL-2 (Miltenyi Biotec® 130-097-748), at a concentration of 4×10^5 cells/mL. For the NK cell cytotoxicity assays, 50 μL (2×10^4) of cell suspension was plated in the 96-well plate (Grenier® Bio One™ 655090) containing 50 μl (4×10^3) HT1080-luc cells (ATCC® CCL-121-luc2) in DMEM (Gibco™ 11875-093; with L-glutamine) with 10% heat-inactivated fetal bovine serum (FBS; Corning® 35-011-CV), 10 mM HEPES (Gibco™ 15-630-080), and 1% Penicillin Streptomycin (Corning™ 30-002-CI). […] The plates were then incubated for 24 hours at 37° C., 5% CO2. Post-incubation, plates was centrifuged at 250×g for 5 minutes and 100 μl supernatant discarded. Samples were then incubated 10 minutes with 50 μl Bright-Glo™ Luciferase Assay system (Promega™ E2620). Luminescence upon excitation at 570 nm was read using a CLARIOstar® plate-reader with MARS Data Analysis Software™. Data was fit to a four-parameter non-linear regression in GraphPad Prism™ 8.0.2 to generate an EC50 value.

HT1080-luc cells = assay: as above; type: cell-based, human; conditions: for effect on tumor cell killing by NK cells, in words: in comparison to NK:HT1080-luc co-culture without heterotandem complex (NK-TICA)
Protocol: as §1, §2

NKp46 (human) = NKp46 (human) (UniProt O76036); assay: cell-based or functional assay
NKp46 (human), sequence (O76036 22-304): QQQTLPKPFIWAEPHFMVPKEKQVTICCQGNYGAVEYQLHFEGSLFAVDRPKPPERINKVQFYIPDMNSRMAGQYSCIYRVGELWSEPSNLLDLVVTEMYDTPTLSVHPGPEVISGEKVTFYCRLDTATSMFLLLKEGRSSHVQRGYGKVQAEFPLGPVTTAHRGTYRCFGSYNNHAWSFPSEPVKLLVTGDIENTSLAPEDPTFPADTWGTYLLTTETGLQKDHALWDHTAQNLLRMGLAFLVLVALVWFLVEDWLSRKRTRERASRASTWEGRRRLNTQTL

[2] = four-parameter logistic regression, FIGS. 2-4, 6-8, 10

| Molecule | EC50 [1, 2] [pM] | effect on tumor cell killing by NK cells, in words (HT1080-luc cells) | further results |
| --- | --- | --- | --- |
| CC[C@H](C)[C@@H]1NC(=O)CNC(=O)[C@H](Cc2c[nH]c3ccccc23)NC(=O)[C@H](CCC(N)=O)NC(=O)[C@@H]2CSCCC(=O)N3CN(CN(C3)C(=O)CCSC[C@@H](C(=O)N[C@@H](C)C(=O)N[C@@H](CCCCNC(=O)CCc3cn(CCOCCOCCOCCN(CCOCCOCCOCCC(=O)N[C@@H](C)C(=O)N[C@@H](CCCCNC(=N)N)C(=O)N[C@@H](CC(=O)O)C(=O)N[C@H]4CSCCC(=O)N5CN6CN(C5)C(=O)CCSC[C@H](NC(=O)[C@H](CC(C)C)NC(=O)[C@@H]5CCCN5C(=O)[C@H](CC(N)=O)NC(=O)[C@H](C(C)C)NC(=O)[C@H](CC(C)C)NC(=O)[C@@H]5C[C@@H](O)CN5C4=O)C(=O)N[C@@H](CC(C)C)C(=O)N[C@@H](Cc4c[nH]cn4)C(=O)N4CCC[C@H]4C(=O)N[C@H](CC(=O)O)C(=O)N[C@@H](Cc4c[nH]c5ccccc45)C(=O)N[C@@H](CCCCNC(=N)N)C(=O)N[C@H](C(N)=O)CSCCC6=O)CCOCCOCCOCCn4cc(CCC(=O)NCCCC[C@H](NC(=O)[C@H](C)NC(=O)[C@@H]5CSCCC(=O)N6CN7CN(C6)C(=O)CCSC[C@H](NC(=O)[C@H](CC(N)=O)NC(=O)[C@H](Cc6c[nH]cn6)NC(=O)[C@H]([C@@H](C)O)NC(=O)[C@H]([C@@H](C)O)NC(=O)[C@H](CC(C)C)NC(=O)[C@H](CC(=O)O)NC(=O)[C@@H](NC(=O)[C@H](C)N)CSCCC7=O)C(=O)N[C@@H](CCC(N)=O)C(=O)N[C@@H](Cc6c[nH]c7ccccc67)C(=O)NCC(=O)N[C@@H]([C@@H](C)CC)C(=O)N5)C(N)=O)nn4)nn3)C(N)=O)NC1=O)C(=O)CCSC[C@H](NC(=O)[C@H](C)N)C(=O)N[C@@H](CC(=O)O)C(=O)N[C@@H](CC(C)C)C(=O)N[C@@H]([C@@H](C)O)C(=O)N[C@@H]([C@@H](C)O)C(=O)N[C@@H](Cc1c[nH]cn1)C(=O)N[C@@H](CC(N)=O)C(=O)N2 [BCY15923] | 44 | dose-dependent NK cell response to kill | – |
| CC(=O)N[C@H]1CSCCC(=O)N2CN3CN(C2)C(=O)CCSC[C@H](NC(=O)[C@H](CC(C)C)NC(=O)[C@H](Cc2ccc(O)cc2)NC(=O)[C@H](CC(=O)O)NC(=O)[C@@H]2CCCN2C(=O)[C@H](CC2CCC2)NC(=O)[C@H](Cc2ccc(O)cc2)NC1=O)C(=O)N[C@H](C)C(=O)N[C@@H](CC(=O)O)C(=O)N[C@@H](CCC(=O)O)C(=O)N[C@@H](Cc1ccc(O)cc1)C(=O)N[C@H](C(=O)N[C@@H](CCCCNC(=O)CCc1cn(CCOCCOCCOCCN(CCOCCOCCOCCC(=O)N[C@@H](CC(C)C)C(=O)N2CCC[C@H]2C(=O)N2CCC[C@H]2C(=O)N[C@H]2CSCCC(=O)N4CN5CN(C4)C(=O)CCSC[C@H](NC(=O)[C@H](CCC(=O)O)NC(=O)[C@H](CCCCNC(=N)N)NC(=O)[C@H](C(C)C)NC2=O)C(=O)N[C@@H](C)C(=O)N[C@@H](CC(C)(C)C)C(=O)N[C@@H](CC(C)C)C(=O)N[C@@H](Cc2ccccc2)C(=O)N2CCC[C@H]2C(=O)N[C@@H](CCCCNC(=N)N)C(=O)N[C@@H]([C@@H](C)O)C(=O)N[C@H](C(N)=O)CSCCC5=O)CCOCCOCCOCCn2cc(CCC(=O)NCCCC[C@H](NC(=O)[C@@H]4CSCCC(=O)N5CN6CN(C5)C(=O)CCSC[C@H](NC(=O)[C@H](CC(C)C)NC(=O)[C@H](Cc5ccc(O)cc5)NC(=O)[C@H](CC(=O)O)NC(=O)[C@@H]5CCCN5C(=O)[C@H](CC5CCC5)NC(=O)[C@H](Cc5ccc(O)cc5)NC(=O)[C@@H](NC(C)=O)CSCCC6=O)C(=O)N[C@H](C)C(=O)N[C@@H](CC(=O)O)C(=O)N[C@@H](CCC(=O)O)C(=O)N[C@@H](Cc5ccc(O)cc5)C(=O)N4)C(N)=O)nn2)nn1)C(N)=O)CSCCC3=O [BCY18604] | 7.9 | enhanced NK cytotoxicity | – |
| CC(=O)N[C@H]1CSCCC(=O)N2CN3CN(C2)C(=O)CCSC[C@H](NC(=O)[C@H](CC(C)C)NC(=O)[C@H](Cc2ccc(O)cc2)NC(=O)[C@H](CC(=O)O)NC(=O)[C@@H]2CCCN2C(=O)[C@H](CC2CCC2)NC(=O)[C@H](Cc2ccc(O)cc2)NC1=O)C(=O)N[C@H](C)C(=O)N[C@@H](CC(=O)O)C(=O)N[C@@H](CCC(=O)O)C(=O)N[C@@H](Cc1ccc(O)cc1)C(=O)N[C@H](C(=O)N[C@@H](CCCCNC(=O)CCc1cn(CCOCCOCCOCCOCCOCCOCCOCCOCCOCCOCCOCCOCCOCCOCCOCCOCCOCCOCCOCCOCCOCCOCCOCCOCCC(=O)N[C@@H](C)C(=O)N[C@@H](CCCCNC(=N)N)C(=O)N[C@@H](CC(=O)O)C(=O)N[C@H]2CSCCC(=O)N4CN5CN(C4)C(=O)CCSC[C@H](NC(=O)[C@H](CC(C)C)NC(=O)[C@@H]4CCCN4C(=O)[C@H](CC(N)=O)NC(=O)[C@H](C(C)C)NC(=O)[C@H](CC(C)C)NC(=O)[C@@H]4C[C@@H](O)CN4C2=O)C(=O)N[C@@H](CC(C)C)C(=O)N[C@@H](Cc2c[nH]cn2)C(=O)N2CCC[C@H]2C(=O)N[C@H](CC(=O)O)C(=O)N[C@@H](Cc2c[nH]c4ccccc24)C(=O)N[C@@H](CCCCNC(=N)N)C(=O)N[C@H](C(N)=O)CSCCC5=O)nn1)C(N)=O)CSCCC3=O [BCY18731] (I: A[hArg]DC[Hyp]LVNPLCLHP[dD]W[hArg]C-NH2 / II: Ac-CY[Cba]PDYLC[dA]DEYCK-NH2; linker I:4-I:11-I:18, II:1-II:8-II:13 via TATA; linker I:N-II:14 via X3; C-terminus assumed) | 18 | – | – |
| BCY17235: EphA2 peptide BCY9594 linked to NKp46 peptide (BCY17224) and CD16a peptide (BCY13883) via a TCA-[Peg23]3 linker (peptide 1 A[hArg]DC[Hyp]LVNPLCLHP[dD]W[hArg]C; peptide 2 Ac-CY[Cba]PDYLC[dA]DEYCK(Pent4ynoyl); peptide 3 ACRWSVEDPCGAWCAK(Pent4ynoyl); linker I:4-I:11-I:18, II:1-II:8-II:13 via TATA; linker III:2-III:10-III:14 via TBMT; also: chain 1 N-terminus and the K(PYA) of chains 2 and 3 joined through TCA-[Peg23]3 linker) | – | enhanced, dose-dependent effect on tumor cell killing | EC50 (HT1080-luc cells; NK:HT1080-luc co-culture, 24 hours, four-parameter logistic regression, FIGS. 2-4, 6-8, 10, read-out: EC50 NK cytotoxicity (tumor cell killing)): 14 pM |
| I: A[hArg]DC[Hyp]LVNPLCLHP[dD]W[hArg]C-NH2 / II: ACNLQAPCMQTGKVCAK-NH2 / III: ACNLQAPCMQTGKVCAK-NH2 (linker I:4-I:11-I:18, II:2-II:8-II:15, III:2-III:8-III:15 via TATA; linker I:N-II:17-III:17 via X1; C-terminus assumed) [BCY15924] | – | enhanced NK cytotoxicity | EC50 ([1]; FIG. 9): 500 pM |
| I: A[hArg]DC[Hyp]LVNPLCLHP[dD]W[hArg]C-NH2 / II: Ac-CY[Cba]PDYLC[dA]DEYCK-NH2 / III: Ac-CY[Cba]PDYLC[dA]DEYCK-NH2 (linker I:4-I:11-I:18, II:1-II:8-II:13, III:1-III:8-III:13 via TATA; linker I:N-II:14-III:14 via X1; C-terminus assumed) [BCY17226] | 6.1 | dose-dependent NK cell response to kill | – |
| I: Ac-D[hArg]CSAGWLTMCQKLHLCPSH-NH2 / II: Ac-CY[Cba]PDYLC[dA]DEYCK-NH2 / III: Ac-CY[Cba]PDYLC[dA]DEYCK-NH2 (linker I:3-I:11-I:17, II:1-II:8-II:13, III:1-III:8-III:13 via TATA; linker I:13-II:14-III:14 via X1; C-terminus assumed) [BCY18603] | 3 | enhanced NK cytotoxicity | – |
| heterotandem bicyclic peptide complex BCY21686 (linker I:4-I:11-I:18, II:1-II:8-II:13 via TATA; not fully specified (bridges); also: EphA2:NKp46 1:3, three copies of chain 2 on the linker, linker also given with PEG3-acid, X5, X17: HyP or HArg) peptide 1: A[hArg]DC[Hyp]LVNPLCLHP[dD]W[hArg]C peptide 2: Ac-CY[Cba]PDYLC[dA]DEYCK(Pent4ynoyl) | – | – | EC50, NK cytotoxicity assay (HT1080-luc luminescence) (NKp46 (human)): 1.3 pM |
| heterotandem bicyclic peptide complex BCY18731 (linker I:4-I:11-I:18, II:1-II:8-II:13 via TATA; not fully specified (bridges); also: joined via azide-PEG24-acid linker (N-terminus of chain 1 to PYA of chain 2, triazole)) peptide 1: A[hArg]DC[Hyp]LVNPLCLHP[dD]W[hArg]C peptide 2: Ac-CY[Cba]PDYLC[dA]DEYCK(Pent4ynoyl) | – | – | EC50, NK cytotoxicity assay (HT1080-luc luminescence) (NKp46 (human)): 18 pM |
